From patent US10065948B2, “Histone deacetylase inhibitors and compositions and methods of use thereof” (CHDI Foundation, Inc., priority 2014, dated 2018)

What was measured:
[1] = target: Histone Deacetylase 4 (HDAC4) catalytic domain (Homo sapiens (Human), UniProt P56524); experiment: Biochemical HDAC inhibition assay, fluorogenic substrate Boc-Lys(Tfa)-AMC
Experimental: The potency of compounds is quantified by measuring the Histone Deacetylase 4 (HDAC4) catalytic domain enzymatic activity using the fluorogenic substrate, Boc-Lys(Tfa)-AMC. The substrate is deacetylated to Boc-Lys-AMC by HDAC4. Cleavage by trypsin results in the release of the fluorophore AMC from the deacetylated substrate. The fluorescence of the sample is directly related to the histone deacetylase activity in the sample.
Stocks of 60 μL aliquots of the 10 mM compound in DMSO are prepared and stored at −20° C. From one stock aliquot of each compound to be tested and the reference compound, a 16-point serial dilution is prepared according to Table 1 using a 125 μL 16-channel Matrix multi-channel pipette (Matrix Technologies Ltd).
2 μL (200×) of each diluted solution and each control (full activity: 100% DMSO alone or full inhibition 1 mM) is stamped into V-bottomed polypropylene 384-well compound plates using either the Bravo (384-well head from Agilent) or 12.5 μL 16-channel Matrix multi-channel pipette (Matrix Technologies Ltd). Each well with the 200× compound solution is diluted 1:20 by the addition of 38 μL assay buffer+DMSO (10.5% DMSO, 45 mM Tris-HCl, 123 mM NaCl, 2.4 mM KCl, and 0.9 mM MgCl2 at pH 8.0 and equilibrated to room temperature).
The HDAC4 catalytic domain enzyme is human catalytic domain HDAC4 protein (amino acids 648-1032) with a C-terminal 6× histidine tag, produced by BioFocus. A working solution of enzyme is prepared from a 500 μg/mL stock aliquot of HDAC4 catalytic domain (thawed on ice) diluted to 0.2 μg/mL with assay buffer (50 mM Tris-HCl, 137 mM NaCl, 2.7 mM KCl, and 1 mM MgCl2 at pH 8 and equilibrated to room temperature) just prior to the addition of the enzyme to the assay.
5× (50 μM) substrate is prepared just prior to the addition to the assay. A 1 mM substrate stock is made by diluting a 100 mM Boc-Lys(Tfa)-AMC in DMSO solution 1:100 by adding it drop-wise to assay buffer (equilibrated to room temperature) while vortexing at slow speed to prevent precipitation. The 5× substrate is prepared by diluting the 1 mM substrate solution 1:20 by adding it drop-wise to assay buffer (equilibrated to room temperature) while vortexing at slow speed to prevent precipitation.
3× (30 μM) Developer/Stop Solution is prepared just prior to addition to the plate by diluting a stock solution of 10 mM reference compound 1:333 in 25 mg/mL trypsin (PAA Laboratories Ltd.) equilibrated to room temperature.
5 μL of each solution of 1:20 diluted compound from above is transferred to a clear bottomed, black, 384-well assay plate using the Bravo or the Janus (384-well MDT head from Perkin Elmer). Using a 16-channel Matrix multi-channel pipette, 35 μL of the working solution of HDAC4 catalytic domain enzyme (0.2 μg/mL in assay buffer) is transferred to the assay plate. […] The assay plate is then shaken for two minutes on an orbital shaker at 900 rpm (rotations per minute). Next the plate is incubated for 15 minutes at 37° C. The reaction is stopped by adding 25 μL of 3× (30 μM) developer/stop solution to the assay plates using either the Bravo, Janus or a 16-channel Matrix multi-channel pipette. Assay plates are then shaken for 5 minutes on an orbital shaker at 1200 rpm. Next, the assay plates are incubated at 37° C. for 1 hour in a tissue culture incubator. Finally, the fluorescence is measured (Excitation: 355 nm, Emission: 460 nm) using PerkinElmer EnVision in top read mode.

[2] = test system: cellular histone deacetylase enzymatic activity in Jurkat E6-1 cells; experiment: Inhibition of cellular HDAC activity, Boc-Lys(Tfa)-AMC substrate (Cell Lys-TFA); assay type: cell-based
Experimental: The potency of the compounds is quantified by measuring the cellular histone deacetylase enzymatic activity using the fluorogenic substrate, Boc-Lys(Tfa)-AMC. After penetration in Jurkat E6-1 cells, the substrate is deacetylated to Boc-Lys-AMC. After cell lysis and cleavage by trypsin, the fluorophore AMC is released from the deacetylated substrate only. The fluorescence of the sample is directly related to the histone deacetylase activity in the sample.
Jurkat E6.1 cells are cultured according to standard cell culture protocols in Jurkat E6.1 Growth Media (RPMI without phenol red, 10% FBS, 10 mM HEPES, and 1 mM Sodium Pyruvate). Jurkat E6.1 cells are counted using a Coulter Counter and resuspended in Jurkat E6.1 growth media at a concentration of 75,000 cells/35 μL. 35 μL or 75,000 cells is seeded into Greiner microtitre assay plates. The plates are then incubated at 37° C. and 5% CO2 while other assay components are being prepared.
Stocks of 70 μL aliquots of the 10 mM compound in DMSO are prepared and stored at −20° C. From one stock aliquot of each compound to be tested and the reference compound, a 16-point serial dilution is prepared according to Table 1 using a 125 μL 16-channel Matrix multi-channel pipette.
2 μL (200×) of each diluted solution and each control (full activity: 100% DMSO alone or full inhibition 1 mM) is stamped into V-bottom polypropylene 384-well compound plates using either the Bravo, Janus, or 12.5 μL 16-channel Matrix multi-channel pipette. Each well with the 200× compound solution is diluted 1:20 by the addition of 38 μL Jurkat assay buffer+DMSO (9.5% DMSO, RPMI without phenol red, 0.09% FBS, 9 mM Hepes, and 0.9 mM Sodium Pyruvate equilibrated to room temperature)
5× (500 μM) substrate is prepared just prior to the addition to the assay. The 5× substrate is prepared by diluting a 100 mM Boc-Lys(Tfa)-AMC in DMSO solution 1:200 by adding it drop-wise to Jurkat assay medium (RPMI without phenol red, 0.1% FBS, 10 mM Hepes, and 1 mM Sodium Pyruvate equilibrated to 37° C.) while vortexing at slow speed to prevent precipitation.
10 mL of 3× lysis buffer is prepared with 8.8 ml of 3× stock lysis buffer (50 mM Tris-HCl, pH 8.0, 137 mM NaCl, 2.7 mM KCl, 1 mM MgCl2, 1% Nonidet P40 Substitute equilibrated to room temperature) and 1.2 mL of 3 mg/mL Trypsin equilibrated to room temperature.
5 μL of each solution of 1:20 diluted compound from above is transferred to the Greiner microtitre assay plates with 75,000 cells/well using the Bravo. Cells are then incubated for 2 hours at 37° C. and 5% CO2. […] The cells are then incubated for 3 hours at 37° C. and 5% CO2. Next, 25 μL of 3× lysis buffer is added to each well using either the 125 μL 16 channel pipette or the Bravo. The assay plate is then incubated overnight (15-16 hours) at 37° C. and 5% CO2. The following day, the plates are shaken on an orbital shaker for 1 minute at 900 rpm. Finally the top read fluorescence (Excitation: 355 nm, Emission: 460 nm) is measured using PerkinElmer EnVision.

[3] = test system: cellular histone deacetylase activity (Lys-Ac); experiment: Inhibition of cellular HDAC activity (Cell Lys-Ac); assay type: cell-based; settings: Lys-Ac substrate
[4] = Homo sapiens, Jurkat E6.1, Lys-TFA substrate

Histone Deacetylase 4 (HDAC4) catalytic domain, sequence (P56524 648-1032): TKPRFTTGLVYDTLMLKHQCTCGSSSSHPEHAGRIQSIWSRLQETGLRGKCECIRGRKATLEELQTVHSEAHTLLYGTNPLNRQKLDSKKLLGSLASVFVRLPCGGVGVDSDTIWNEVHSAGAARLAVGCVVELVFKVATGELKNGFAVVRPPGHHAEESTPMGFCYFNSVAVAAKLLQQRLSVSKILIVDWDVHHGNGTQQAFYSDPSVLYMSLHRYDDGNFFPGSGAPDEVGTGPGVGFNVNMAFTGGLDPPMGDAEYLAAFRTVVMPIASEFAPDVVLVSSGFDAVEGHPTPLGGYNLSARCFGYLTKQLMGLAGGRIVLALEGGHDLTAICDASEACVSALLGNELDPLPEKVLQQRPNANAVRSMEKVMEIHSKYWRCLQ

Structure (SMILES)	IC50 [1] [µM]	IC50 [2, 4] [µM]	IC50 [3] [µM]	IC50 ([2]; Lys-TFA substrate) [µM]
Cc1cccc(C)c1-n1ncc2c1C[C@](C(=O)NO)(c1cccc(F)c1C)C2 [Example 13, (S)-1-(2,6-Dimethylphenyl)-5-(3-fluoro-2-methylphenyl)-N-hydroxy-1,4,5,6-tetrahydrocyclopenta[c]pyrazole-5-carboxamide]	0.027	0.012	> 50	–
Cc1c(F)cccc1[C@]1(C(=O)NO)Cc2cnn(-c3ccc(F)cn3)c2C1 [Example 16, (S)-5-(3-Fluoro-2-methylphenyl)-1-(5-fluoropyridin-2-yl)-N-hydroxy-1,4,5,6-tetrahydrocyclopenta[c]pyrazole-5-carboxamide]	0.031	0.069	> 50	–
Cc1cc(F)ccc1-n1cc2c(n1)C[C@](C(=O)NO)(c1cccc(F)c1C)C2 [Example 23, (S)-5-(3-fluoro-2-methylphenyl)-2-(4-fluoro-2-methylphenyl)-N-hydroxy-2,4,5,6-tetrahydrocyclopenta[c]pyrazole-5-carboxamide]	–	0.134	> 50	–
Cc1c(F)cccc1[C@]1(C(=O)NO)Cc2cnc(C3CC3)nc2C1 [Example 52, (S)-2-Cyclopropyl-6-(3-fluoro-2-methylphenyl)-N-hydroxy-6,7-dihydro-5H-cyclopenta[d]pyrimidine-6-carboxamide]	–	0.21	> 50	–
Cc1c(F)cccc1[C@@]1(C(=O)NO)Cc2nc(-c3ccc(F)cc3)sc2C1 [Example 66, (R)-5-(3-Fluoro-2-methylphenyl)-2-(4-fluorophenyl)-N-hydroxy-5,6-dihydro-4H-cyclopenta[d]thiazole-5-carboxamide]	–	0.098	> 50	–
Cc1c(F)cccc1C1(C(=O)NO)Cc2nc(-c3cccc(F)c3)sc2C1 (single isomer, unassigned) [Example 64, E1-(abs)-5-(3-Fluoro-2-methylphenyl)-2-(3-fluorophenyl)-N-hydroxy-5,6-dihydro-4H-cyclopenta[d]thiazole-5-carboxamide]	–	0.11	> 50	–
Cc1c(F)cccc1[C@@]1(C(=O)NO)CCc2nc(C3CC3)ncc21 (single isomer, unassigned) [Example 57]	–	> 50	> 50	–
Cc1c(F)cccc1[C@]1(C(=O)NO)Cc2cnc(-c3cccnc3)nc2C1 [Example 60, (S)-6-(3-Fluoro-2-methylphenyl)-N-hydroxy-2-(pyridin-3-yl)-6,7-dihydro-5H-cyclopenta[d]pyrimidine-6-carboxamide]	–	0.2	> 50	–
Cc1c(F)cccc1[C@]1(C(=O)NO)CCc2nc(C3CC3)sc21 [Example 72, (S)-2-Cyclopropyl-6-(3-fluoro-2-methylphenyl)-N-hydroxy-5,6-dihydro-4H-cyclopenta[d]thiazole-6-carboxamide]	–	0.79	> 50	–
Cc1ccccc1-n1ncc2c1C[C@](C(=O)NO)(c1cccc(F)c1C)C2 [Example 2, (S)-5-(3-Fluoro-2-methylphenyl)-N-hydroxy-1-(o-tolyl)-1,4,5,6-tetrahydrocyclopenta[c]pyrazole-5-carboxamide]	–	0.014	> 50	–
O=C(NO)C1(c2ccccc2)Cc2ccccc2C1 [Example 89, N-Hydroxy-2-phenyl-2,3-dihydro-1H-indene-2-carboxamide]	–	> 50	> 50	–
Cc1c(F)cccc1[C@]1(C(=O)NO)Cc2nc(-c3ccc(F)cc3)sc2C1 [Example 67, (S)-5-(3-fluoro-2-methylphenyl)-2-(4-fluorophenyl)-N-hydroxy-5,6-dihydro-4H-cyclopenta[d]thiazole-5-carboxamide]	–	0.29	> 50	–
Cc1ccccc1-n1ncc2c1CCC(C(=O)NO)(c1cccc(F)c1C)C2 (single isomer, unassigned) [Example 38, E2-(abs)-5-(3-fluoro-2-methylphenyl)-N-hydroxy-1-(o-tolyl)-4,5,6,7-tetrahydro-1H-indazole-5-carboxamide]	–	–	> 50	11.2
Cc1c(F)cccc1[C@@]1(C(=O)NO)CCc2nc(C3CC3)ncc21 [Example 51, (S)-2-cyclopropyl-5-(3-fluoro-2-methylphenyl)-N-hydroxy-6,7-dihydro-5H-cyclopenta[d]pyrimidine-5-carboxamide]	–	1.4	> 50	–
O=C(NO)[C@]1(c2ccccc2)CCc2ccccc21 [Example 87, E1-(abs)-N-Hydroxy-1-phenyl-2,3-dihydro-1H-indene-1-carboxamide]	–	45.7	> 50	–
Cc1c(F)cccc1[C@@]1(C(=O)NO)Cc2cnc(C3CC3)nc2C1 [Example 50, (R)-2-Cyclopropyl-6-(3-fluoro-2-methylphenyl)-N-hydroxy-6,7-dihydro-5H-cyclopenta[d]pyrimidine-6-carboxamide]	–	0.12	> 50	–
Cc1c(F)cccc1[C@@]1(C(=O)NO)Cc2snc(-c3ccccc3)c2C1 [Example 81, E2-(abs)-5-(3-Fluoro-2-methylphenyl)-N-hydroxy-3-phenyl-5,6-dihydro-4H-cyclopenta[d]isothiazole-5-carboxamide]	–	5.6	> 50	–
Cc1ccccc1-n1ncc2c1CCC(C(=O)NO)(c1cccc(F)c1C)C2 (single isomer, unassigned) [Example 37, E1-(abs)-5-(3-Fluoro-2-methylphenyl)-N-hydroxy-1-(o-tolyl)-4,5,6,7-tetrahydro-1H-indazole-5-carboxamide]	–	–	> 50	0.086
